Results from PMC9961069 (Metabolites, 2023).
Entries after “also recorded” stand apart in the source; their conditions may differ.

What was measured:
[1] = test system: T1, DHFR in MDA-MB-468 cells; test: DHFR accumulation assay (Western blot); assay type: cell-based, Human; details: for Fold increase in DHFR levels: 24 h
T1 construct: reactions containing 55 μg MDA-MB-468 lysate; endogenous in cells; host or cells: MDA-MB-468
Protocol: Trypsinized MDA-MB-468 cells were seeded into 6-well plates at a density of 300,000 cells per 2 mL of media and allowed to adhere for 24 h. […] The final concentration of DMSO in each well was 1%. A DMSO-only control was also performed on each individual plate. Cells were then trypsinized, harvested by centrifugation at 200× g for 5 min at 4 °C, and washed once with PBS/PIC. Cell pellets were flash frozen using an ethanol/dry ice bath and stored at −80 °C prior to lysis. Each cell pellet was lysed as described above using 50 μL PBS/PIC per cell pellet. Samples were then analyzed by Western blot, as described below, using 30 μg lysate per lane. Band intensities of DHFR were normalized to the loading control SOD1 via densitometry using ImageJ (Fiji), and each DHFR band was normalized to the DMSO control. Fold-change in DHFR band intensity was plotted against inhibitor concentration (μM). Each experiment was performed two separate times as individual biological replicates (n = 2).
Proteins were electrophoretically separated on a 10% gel, and proteins were transferred to a methanol-activated PVDF membrane using the Trans-Blot Turbo transfer system (Bio-Rad) for 7 min at 1.3 A and 25 V in Trans-Blot Turbo transfer buffer (Bio-Rad). Membranes were blocked with 5% skim milk w/v in TBS-T (20 mM Tris, 150 mM NaCl, 0.05% Tween-20) for 1 h at room temperature. […] The horseradish peroxidase (HRP)-linked anti-mouse IgG secondary antibody (NA931, Cytiva; 1:3000) was added for 1 h at room temperature in 5% skim milk w/v in TBS-T. Signal was detected by adding Immobilon Forte Western HRP Substrate (Millipore), and chemiluminescence was captured on a Sapphire Biomolecular Imager (Azure Biosystems). Band densities were determined using ImageJ (Fiji). The band intensity of DHFR was normalized to the thermostable loading control SOD1 [22].

[2] = test system: MDA-MB-231 cells; test: LC/MS-based metabolite profiling; assay type: cell-based, Human; details: 24 h; for AICAR levels with FA treatment / Orotate levels with FA supplementation: 10 μM + 300 μg/mL FA; for AICAR levels / Orotate levels / UDP level: 10 μM; for AICAR levels / Orotate levels: inhibitor alone; for UDP level: inhibitor alone versus DMSO
Protocol: For characterization by mass spectrometry, MDA-MB-231 cells were seeded at a density of 3 × 10^5 cells per well in 6-well plates. […] DMSO only and DMSO + folinic acid controls were also performed. Per condition, biological quadruplicates of approximately one million cells were harvested, washed briefly with 1 mL of 0.9% NaCl (prepared in LC/MS-grade water Fisher Scientific W6500), and extracted in 500 μL prechilled extraction buffer (80% LC/MS-grade methanol, 20% 125 mM ammonium acetate, 12.5 mM sodium ascorbate prepared in LC/MS-grade water and supplemented with aminopterin (catalog no.: 16.330; Schircks Laboratories) and isotopically labeled internal standards (17 amino acids and reduced glutathione [Cambridge Isotope Laboratories; MSK- A2-1.2 and CNLM-6245-10])) using a cell scraper. After centrifugation for 10 min, 4 °C, at maximum speed on a benchtop centrifuge (Eppendorf), the cleared supernatant was transferred to a new tube and dried using a nitrogen dryer (Reacti-Vap™ Evaporator, Thermo Fisher Scientific, TS-18826) while on ice. Once the drying process was completed, samples were reconstituted in 50 µL QReSS water (Cambridge Isotope Laboratories, MSK-QRESS-KIT) by brief sonication in a 4 °C water bath. Extracted metabolites were spun for 3 min, 4 °C, at maximum speed on a bench-top centrifuge, and cleared supernatant was transferred to LC/MS microvials (National Scientific, C5000-45B). Three microliters of each sample were pooled and serially diluted 3- and 10-fold to be used as quality controls throughout the run of each batch. Unlabeled QReSS metabolites (Cambridge Isotope Laboratories, MSK-QReSS-US-KIT) and unlabeled amino acid mix standard (Cambridge Isotope Laboratories, MSK-A2-US-1.2) were also included in the run to ensure high-quality metabolomics results.
One microliter (equivalent to 2 × 10^4 cells) of the reconstituted sample was injected into a ZIC-pHILIC 150 × 2.1 mm (5 µm particle size) column (EMD Millipore) operated on a Vanquish™ Flex UHPLC Systems (Thermo Fisher Scientific, San Jose, CA, USA). Chromatographic separation was achieved using the following conditions: buffer A was acetonitrile; buffer B was 20 mM ammonium carbonate, 0.1% ammonium hydroxide. Gradient conditions were: linear gradient from 20% to 80% B; 20–20.5 min: from 80% to 20% B; 20.5–28 min: hold at 20% B. The column oven and autosampler tray were held at 25 °C and 4 °C, respectively.
Mass spectrometry data acquisition was performed using a QExactive benchtop orbitrap mass spectrometer equipped with an Ion Max source and a HESI II probe (Thermo Fisher Scientific, San Jose, CA, USA) and was performed in positive and negative ionization mode in a range of m/z = 70–1000, with the resolution set at 70,000, the AGC target at 1 × 10^6, and the maximum injection time (Max IT) at 20 msec. For nucleotide tSIM scans, the resolution was set at 70,000, the AGC target was 1 × 10^5, and the max IT was 100 msec.
Manual curation and integration of chromatographic peaks were performed with TraceFinder 4.1 (Thermo Fisher Scientific, Waltham, MA, USA) using a 5 ppm mass tolerance and referencing an in-house library of chemical standards. Data from TraceFinder were further consolidated and normalized with an in-house R script: (https://github.com/FrozenGas/KanarekLabTraceFinderRScripts/blob/main/MS_data_script_v2.4_20221018.R (accessed on 22 November 2022)). Briefly, this script performs normalization and quality control steps: (1) extracts and combines the peak areas from TraceFinder output .csvs; (2) calculates and normalizes to an averaged factor from all mean-centered chromatographic peak areas of isotopically labeled amino acids internal standards within each sample; (3) filters out low-quality metabolites based on user inputted cut-offs calculated from pool reinjections and pool dilutions; (4) calculates and normalizes for biological material amounts based on the total integrated peak area values of high-confidence metabolites. […]

Row | SMILES | DHFR accumulation ([1]; MDA-MB-468, 24 h) | AICAR levels with FA treatment [2] | Orotate levels with FA supplementation [2] | AICAR levels [2] | Orotate levels [2] | UDP level [2] | Fold increase in DHFR levels ([1]; MDA-MB-468, 10 nM) | Fold increase in DHFR levels ([1]; MDA-MB-468, 1 µM) | Concentration giving notable accumulation of DHFR ([1]; MDA-MB-468, 24 h, range 0.012–1 nM)
1 | CC1(C)N=C(N)N=C(N)N1c1ccc(Cl)cc1 [Cyc, Cycloguanil] | required higher concentrations to induce DHFR accumulation; also recorded: failed to induce DHFR accumulation at low nM concentrations | returned AICAR to the same levels as vehicle controls | returned orotate to vehicle control levels | much larger increases in AICAR | decreased or statistically insignificant changes in orotate levels | significantly depleted |  |  | 
2 | CCc1nc(N)nc(N)c1-c1ccc(Cl)cc1 [Pyr, Pyrimethamine] | required higher concentrations to induce DHFR accumulation | returned AICAR to the same levels as vehicle controls | returned orotate to vehicle control levels | much larger increases in AICAR | decreased or statistically insignificant changes in orotate levels | significantly depleted |  |  | 
3 | CC1(C)N=C(N)N=C(N)N1c1ccc(CCCCc2ccc(S(=O)(=O)F)cc2)c(Cl)c1 [compound 127159] |  | further increased AICAR | orotate remained elevated in the presence of FA | increased slightly, yet significantly | stark increase in orotate levels | not upon treatment with MTX and 127159 alone | 10 fold | 30 fold | 0.33 nM
